One test addresses T1, PAR2 (Homo sapiens, UniProt P55085).
T1 construct: HaCaT cell line keratinocyte models were used; endogenous in cells; host or cells: HaCaT keratinocytes
T1 sequence (P55085 26-397): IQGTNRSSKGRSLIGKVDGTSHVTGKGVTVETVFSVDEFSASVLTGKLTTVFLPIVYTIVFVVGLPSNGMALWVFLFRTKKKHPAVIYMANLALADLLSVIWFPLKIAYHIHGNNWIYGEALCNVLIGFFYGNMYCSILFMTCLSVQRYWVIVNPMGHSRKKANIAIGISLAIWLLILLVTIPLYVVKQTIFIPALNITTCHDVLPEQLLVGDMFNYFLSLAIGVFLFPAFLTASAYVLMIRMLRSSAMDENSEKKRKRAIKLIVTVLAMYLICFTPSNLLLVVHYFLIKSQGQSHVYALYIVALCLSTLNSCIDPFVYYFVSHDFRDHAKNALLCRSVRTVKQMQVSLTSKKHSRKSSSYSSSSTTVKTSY
The experiment in a line: Inhibition of trypsin-induced calcium flow (PAR2 activation) in HaCaT keratinocytes, Fluo-4/AM fluorescence. The test is classed as cell-based. As to conditions: HaCaT cells, 10 nM trypsin stimulation; for inhibition at 3 µM / inhibition at 10 µM / inhibition at 30 µM / inhibition at 100 µM: 30 min incubation, read-out: Anti-PAR2 activity (percentage of inhibition); for Inhibition of PAR2 activation (result in words): 3-100 μM. The protocol:
HaCaT cell line keratinocyte models were used. L-serine and L-asparagine were purchased from EVONIK, L-arginine was purchased from AMINO and L-valine was purchased from AJINOMOTO.
A fluorescent probe (Fluo-4/AM at a concentration of 2 μM) is incorporated for 30 minutes in cells inoculated in 96-well plates and the active agent to be tested is incubated for 30 minutes. Only the deesterified form of the probe bound to calcium ions is excitable under 485 nm fluorescence and emits at 535 nm. The incubation buffer used is HBSS buffer supplemented with HEPES (20 mM) and with water-soluble probenecid (2.5 mM).
The cells were stimulated with 10 nM trypsin.
The reference molecule used is a STI molecule (soybean trypsin inhibitor) at a concentration of 1 μM.
L-serine and L-asparagine, solubilized at 50 mg/ml in distilled water (475.8 mM for L-serine and 378.4 mM for L-asparagine) were evaluated at concentrations of 3 μM, 10 μM, 30 μM and 100 μM.
L-arginine was solubilized at 100 mM in distilled water.
L-valine was solubilized at 200 mM in distilled water.
Calcium flow, which represents PAR2 activation, is measured by fluorescence, well by well in real time according to kinetics before and after the injection of trypsin. The percentage of inhibition of PAR2 activation corresponds to the percentage of inhibition of calcium flow.

Another test deals with IL-8 secretion. The experiment in a line: Inhibition of IL-8 secretion stimulated by trypsin in HaCaT keratinocytes (sandwich ELISA). The following applies: Homo sapiens, 10 nM trypsin 24 h, n=2 experiments. The format is cell-based. How it is done:
The test performed permitted to evaluate the anti-inflammatory activity of L-serine in terms of IL-8 secretion, stimulated by trypsin, on human keratinocytes from a cell line (HaCaT). Principle of the IL-8 Assay: Sandwich ELISA for Quantification of IL-8 Secreted in Culture Supernatants. IL-8 is captured by a monoclonal antibody bound to microplate wells. A second anti-IL-8 antibody is added. This antibody is biotinylated, which enabled the binding of streptavidin coupled with peroxidase activity. Adding the peroxidase substrate makes it possible to quantify the IL-8 concentration in each well by measuring absorbance at 450 nm. The HaCaT human keratinocyte cell line was used. A 96-well microplate for cell culture and a plate reader with injectors, Mithras LB940TM (Berthold Technologies®), were used. 10 nM trypsin was used as stimulation agent. Reagents from the Human CXCL8/IL8 DuoSet R&D System kit (ref. DY208(E)) were used. L-serine, solubilized at 475.8 mM in distilled water, was evaluated at concentrations of 3 μM, 10 μM, 30 μM, 100 μM, 300 μM and 1 mM. L-serine is incubated for 1 hour at 37° C. (HBSS buffer). The stimulation agent (trypsin […]) is then added and incubated for 24 hours at 37° C. The culture supernatants are recovered, centrifuged at +4° C. and then stored at -20° C. The IL-8 concentrations of the samples are calculated from a standard curve of the following equation: OD=(Bmax*[IL-8])/(Kd+[IL-8]) Next, the percentages of inhibition of IL-8 secretion are calculated according to the following formula: […]

Marks after values point to notes of the source that are not given here.

As to `NC(CO)C(=O)O` [L-serine, 2-amino-3-hydroxypropanoic acid], on PAR2, the inhibition at 3 µM was determined as 3%, the inhibition at 10 µM was 13%, the inhibition at 30 µM stood at 20% and the inhibition at 100 µM came to 33%. The “Inhibition of PAR2 activation (result in words)” value (from here on “Inhibition of PAR2 activation”) on PAR2 is “inhibit PAR2 activation in a dose-dependent manner”. Also, in the test with IL-8 secretion (10 μM), the inhibition at 10 µM is 47%. Further, in the test with IL-8 secretion (30 μM), the inhibition at 30 µM is 50%. In addition, the inhibition at 100 µM with IL-8 secretion (100 μM) amounted to 66%. In addition, the inhibition at 1000 µM in the test on IL-8 secretion (1 mM) came out at 74%.
Take `NC(=O)CC(N)C(=O)O` [L-asparagine, asparagine-amino-succinic acid]: at PAR2, the inhibition at 3 µM is 23%, the inhibition at 10 µM amounted to 23%, the inhibition at 30 µM was determined as 22% and the inhibition at 100 µM turned out to be 31%. Moreover, the “Inhibition of PAR2 activation” value on PAR2 is reported as “inhibit PAR2 activation, but not in a dose-dependent manner”.
With `N=C(N)NCCC[C@H](N)C(=O)O` [L-arginine, reference compound], at PAR2, the inhibition at 3 µM was -17%, the inhibition at 10 µM came out at 12%, the inhibition at 30 µM is -11% and the inhibition at 100 µM is 1%. In addition, on PAR2, the “Inhibition of PAR2 activation” value is recorded as “does not significantly inhibit PAR2 activation”.
In the case of `CC(C)[C@H](N)C(=O)O` [L-valine], on PAR2, the inhibition at 3 µM came to 6%, the inhibition at 10 µM turned out to be 26%, the inhibition at 30 µM was 20% and the inhibition at 100 µM is 34%. For the same molecule, on PAR2, the “Inhibition of PAR2 activation” value is “inhibit PAR2 activation”.

B1: STI: reference molecule, STI molecule (soybean trypsin inhibitor) at a concentration of 1 μM (protein, UniProt P01070 25-205, looked up)
Trypsin inhibitor A: DFVLDNEGNPLENGGTYYILSDITAFGGIRAAPTGNERCPLTVVQSRNELDKGIGTIISSPYRIRFIAEGHPLSLKFDSFAVIMLCVGIPTEWSVVEDLPEGPAVKIGENKDAMDGWFRLERVSDDEFNNYKLVFCPQQAEDDKCGDIGISIDHDDGTRRLVVSKNKPLVVQFQKLDKESL
Regarding B1, in the test with PAR2 (reference at 1 μM), the “Anti-PAR2 activity (percentage of inhibition)” value is reported as 106-109%***.

The record behind these values is patent US10052297B2, “L-serine to be used as a drug for preventing and/or treating an inflammatory response of the skin” (PIERRE FABRE DERMO-COSMETIQUE, priority 2009, dated 2018).
